Results published in ChEMBL document CHEMBL2203174, “SAR Development of Lysine-Based Irreversible Inhibitors of Transglutaminase 2 for Huntington's Disease” (ACS Med Chem Lett, 2012).

Experiments:
[1] = target: T1, Protein-glutamine gamma-glutamyltransferase (Homo sapiens, UniProt P21980); assay: Irreversible inhibition of transglutaminase 2
T1 sequence (P21980 whole entry): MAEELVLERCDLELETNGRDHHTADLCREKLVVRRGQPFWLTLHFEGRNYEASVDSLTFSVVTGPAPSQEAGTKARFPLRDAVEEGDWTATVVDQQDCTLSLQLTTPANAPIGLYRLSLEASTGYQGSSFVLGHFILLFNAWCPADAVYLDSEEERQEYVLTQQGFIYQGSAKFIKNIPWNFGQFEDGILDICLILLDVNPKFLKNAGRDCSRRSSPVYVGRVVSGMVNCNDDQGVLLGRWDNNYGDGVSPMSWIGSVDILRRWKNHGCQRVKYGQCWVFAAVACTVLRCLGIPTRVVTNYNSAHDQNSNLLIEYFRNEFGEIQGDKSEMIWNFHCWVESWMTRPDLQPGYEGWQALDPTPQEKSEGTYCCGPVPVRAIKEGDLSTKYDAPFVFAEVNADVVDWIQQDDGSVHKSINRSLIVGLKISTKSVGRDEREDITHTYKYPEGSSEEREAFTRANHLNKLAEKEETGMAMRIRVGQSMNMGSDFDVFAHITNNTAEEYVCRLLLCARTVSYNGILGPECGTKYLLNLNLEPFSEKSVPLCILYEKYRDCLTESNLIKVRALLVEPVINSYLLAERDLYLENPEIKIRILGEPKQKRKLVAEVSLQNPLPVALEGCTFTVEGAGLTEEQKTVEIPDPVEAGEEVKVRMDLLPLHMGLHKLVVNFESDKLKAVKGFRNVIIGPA

[2] = Ratio of IC50 for mouse transglutaminase 2 to IC50 for human transglutaminase 2
[3] = target: T2, Coagulation factor XIII A chain (Homo sapiens, UniProt P00488); assay: Inhibition of coagulation factor 13a
T2 sequence (P00488 whole entry): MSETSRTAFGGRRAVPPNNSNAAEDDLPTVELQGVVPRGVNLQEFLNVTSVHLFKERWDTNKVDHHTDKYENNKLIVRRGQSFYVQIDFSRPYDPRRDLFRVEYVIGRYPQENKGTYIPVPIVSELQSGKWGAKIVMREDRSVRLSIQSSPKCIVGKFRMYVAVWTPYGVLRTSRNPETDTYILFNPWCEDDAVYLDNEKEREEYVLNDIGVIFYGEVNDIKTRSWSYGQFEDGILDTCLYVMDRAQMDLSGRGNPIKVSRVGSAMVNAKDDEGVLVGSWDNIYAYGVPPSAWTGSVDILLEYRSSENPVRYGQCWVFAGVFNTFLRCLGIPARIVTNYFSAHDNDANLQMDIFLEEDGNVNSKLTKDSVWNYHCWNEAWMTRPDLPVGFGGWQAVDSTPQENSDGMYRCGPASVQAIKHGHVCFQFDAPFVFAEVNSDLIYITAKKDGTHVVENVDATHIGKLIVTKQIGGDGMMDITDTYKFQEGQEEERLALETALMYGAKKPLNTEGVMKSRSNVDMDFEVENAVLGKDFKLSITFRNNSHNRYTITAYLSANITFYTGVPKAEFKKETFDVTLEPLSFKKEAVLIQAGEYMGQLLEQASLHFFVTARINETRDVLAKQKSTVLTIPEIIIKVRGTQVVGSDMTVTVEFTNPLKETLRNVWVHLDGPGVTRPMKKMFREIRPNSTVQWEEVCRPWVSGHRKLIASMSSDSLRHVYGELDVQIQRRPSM

[4] = target: T3, Protein-glutamine gamma-glutamyltransferase E (Homo sapiens, UniProt Q08188); assay: Inhibition of transglutaminase 3
T3 sequence (Q08188 whole entry): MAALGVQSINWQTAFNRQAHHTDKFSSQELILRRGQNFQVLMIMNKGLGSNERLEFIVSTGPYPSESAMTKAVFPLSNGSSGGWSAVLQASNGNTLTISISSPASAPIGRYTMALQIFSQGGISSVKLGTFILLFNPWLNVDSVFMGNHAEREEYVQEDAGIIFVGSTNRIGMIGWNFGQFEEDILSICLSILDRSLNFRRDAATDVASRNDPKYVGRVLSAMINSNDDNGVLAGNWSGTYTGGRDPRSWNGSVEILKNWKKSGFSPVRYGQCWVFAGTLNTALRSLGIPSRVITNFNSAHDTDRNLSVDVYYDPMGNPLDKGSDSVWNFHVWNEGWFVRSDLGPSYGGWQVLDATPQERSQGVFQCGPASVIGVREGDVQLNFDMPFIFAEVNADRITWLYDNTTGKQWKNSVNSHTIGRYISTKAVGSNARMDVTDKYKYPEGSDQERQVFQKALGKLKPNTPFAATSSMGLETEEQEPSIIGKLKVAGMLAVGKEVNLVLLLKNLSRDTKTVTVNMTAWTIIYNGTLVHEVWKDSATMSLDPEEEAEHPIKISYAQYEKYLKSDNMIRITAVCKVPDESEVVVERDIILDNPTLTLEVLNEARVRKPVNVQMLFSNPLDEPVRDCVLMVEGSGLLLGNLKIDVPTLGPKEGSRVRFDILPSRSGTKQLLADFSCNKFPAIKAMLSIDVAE

[5] = target: T4, Protein-glutamine gamma-glutamyltransferase K (Homo sapiens, UniProt P22735); assay: Inhibition of transglutaminase 1
T4 sequence (P22735 whole entry): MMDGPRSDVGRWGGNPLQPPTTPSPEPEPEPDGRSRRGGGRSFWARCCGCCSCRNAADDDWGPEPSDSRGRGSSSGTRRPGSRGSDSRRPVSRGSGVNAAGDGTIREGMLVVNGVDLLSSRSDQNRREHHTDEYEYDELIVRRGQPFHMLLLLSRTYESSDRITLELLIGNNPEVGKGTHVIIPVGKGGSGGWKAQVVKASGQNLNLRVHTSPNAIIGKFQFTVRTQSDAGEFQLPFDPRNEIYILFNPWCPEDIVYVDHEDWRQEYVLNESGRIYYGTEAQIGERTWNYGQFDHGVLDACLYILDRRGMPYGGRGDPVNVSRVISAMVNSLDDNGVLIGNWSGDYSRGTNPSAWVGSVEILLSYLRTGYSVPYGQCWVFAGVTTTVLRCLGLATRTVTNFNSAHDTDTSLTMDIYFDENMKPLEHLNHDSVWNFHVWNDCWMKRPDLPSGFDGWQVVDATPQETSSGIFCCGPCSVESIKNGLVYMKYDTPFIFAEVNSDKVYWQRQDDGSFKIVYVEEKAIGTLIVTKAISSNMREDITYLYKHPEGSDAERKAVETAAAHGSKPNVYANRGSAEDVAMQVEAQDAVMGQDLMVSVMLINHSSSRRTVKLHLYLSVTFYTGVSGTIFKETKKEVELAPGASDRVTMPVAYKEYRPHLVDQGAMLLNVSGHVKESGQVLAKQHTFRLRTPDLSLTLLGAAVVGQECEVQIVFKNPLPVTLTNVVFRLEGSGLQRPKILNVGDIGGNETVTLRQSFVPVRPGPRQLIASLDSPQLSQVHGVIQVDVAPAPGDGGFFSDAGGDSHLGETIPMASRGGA

| Structure (SMILES) | IC50 [1] [µM] | also measured |
| --- | --- | --- |
| C=CC(=O)NCCCC[C@H](NC(=O)OCc1ccccc1)C(=O)N1CCN(c2ncccc2C(F)(F)F)CC1 | 0.16 | Ratio IC50 [2]: 2 |
| C=CC(=O)NCCCC[C@H](NC(=O)OCc1ccccc1)C(=O)N1CCN(c2cccc(C)n2)CC1 | 0.055 | Ratio IC50 [2]: 2 |
| C=CC(=O)NCCCC[C@H](NC(=O)c1ccc2ccccc2c1)C(=O)N1CCN(c2cccc(C)n2)CC1 | 1.6 |  |
| C=CC(=O)NCCCC[C@H](NC(=O)OCc1ccccc1)C(=O)N1CCN(c2ccccn2)CC1 | 0.26 | Ratio IC50 [2]: 2 |
| C=CC(=O)NCCCC[C@H](NC(=O)OCc1ccc(CCCC)cc1)C(=O)O | 5.9 |  |
| C=CC(=O)NCCCC[C@H](NC(=O)OCc1ccccc1)C(=O)N1CCCCC1 | 1.2 |  |
| C=CC(=O)NCCCC[C@H](NC(=O)OCc1ccccc1)C(=O)N1CCOCC1 | 0.73 |  |
| C=CC(=O)NCCCC[C@H](NC(=O)OCc1ccccc1)C(=O)N1CCN(c2ncccc2C)CC1 | 0.17 | Ratio IC50 [2]: 2 |
| C=CC(=O)Nc1ccc(C[C@H](NC(=O)OCc2ccccc2)C(=O)O)cc1 | > 80 |  |
| C=CC(=O)NCCCC[C@H](NC(=O)OCc1ccc(F)cc1)C(=O)O | 7.9 |  |
| C=CC(=O)NCCCC[C@H](NC(=O)OCc1ccccc1)C(=O)N1CCC1 | 2.5 |  |
| C=CC(=O)NCCCC[C@H](NC(=O)OCc1ccc2ccccc2c1)C(=O)O | 9.1 |  |
| C=CC(=O)NCCCCCNC(=O)OCc1ccccc1 | 7.6 |  |
| C=CC(=O)NCCCC[C@H](NC(=O)OCc1ccccc1)C(=O)N1CCC(F)(F)CC1 | 0.66 |  |
| C=CC(=O)N1CCC(C[C@H](NC(=O)OC(C)(C)C)C(=O)O)CC1 | > 80 |  |
| C=CC(=O)NCCCC[C@H](NC(=O)OCc1ccccc1)C(=O)N1Cc2ccccc2C1 | 0.24 |  |
| C=CC(=O)NCCCC[C@H](NC(=O)OCc1ccccc1)C(=O)N1CCCCCC1 | 0.59 |  |
| C=CC(=O)NCCCC[C@H](NC(=O)c1ccccc1)C(=O)N1CCN(c2cccc(C)n2)CC1 | 0.19 |  |
| C=CC(=O)NCCCC[C@H](NC(=O)OCc1ccc(C(C)(C)C)cc1)C(=O)O | 21 |  |
| C=CC(=O)NCCCC[C@H](NC(=O)OCc1ccccc1)C(=O)N1CCC(c2ccccc2)CC1 | 0.054 | IC50 [3]: 21 µM; IC50 [4]: > 80 µM; IC50 [5]: 9.3 µM |
| C=CC(=O)NCCCC[C@H](NC(=O)OC)C(=O)O | > 80 |  |

| Structure (SMILES) | IC50 [1] [µM] | also measured |
| --- | --- | --- |
| C=CC(=O)NCCCC[C@H](NC(=O)OCc1ccccc1)C(=O)N1CCN(c2cc(Cl)ccc2OC)CC1 | 0.078 | Ratio IC50 [2]: 2 |
| C=CC(=O)NCCCC[C@H](NC(=O)OCc1ccc(C(F)(F)F)cc1)C(=O)O | 33 |  |
| C=CC(=O)NCCCC[C@H](NC(=O)OCc1ccccc1)C(=O)N(C)C | 1.1 |  |
| C=CC(=O)NCCCC[C@H](NC(=O)OCc1cccc2ccccc12)C(=O)O | 14 |  |
| C=CC(=O)NCCCC[C@H](NC(=O)OCc1ccc([N+](=O)[O-])cc1)C(=O)O | 62 |  |
| C=CC(=O)NCCCC[C@H](NC(=O)OCc1ccccc1)C(=O)N1CCCC1 | 0.58 |  |
| C=CC(=O)NCCCC[C@H](NC(=O)OCc1ccccc1)C(=O)O | 2.7 |  |
| C=CC(=O)NCCCC[C@@H](CO)NC(=O)OCc1ccccc1 | 5.4 |  |
| C=CC(=O)NCCC1C[C@@H](C(=O)N2CCN(c3cccc(C)n3)CC2)N(C(=O)OC(C)(C)C)C1 (mixture of isomers) | 1.8 |  |
| C=CC(=O)NCCCC[C@H](NC(=O)OCc1ccccc1)C(=O)N1CCN(c2ccc(C(F)(F)F)cn2)CC1 | 0.11 | Ratio IC50 [2]: 2 |
| C=CC(=O)NCCCC[C@H](NC(=O)OCc1ccccc1)C(=O)N1CCN(c2ccc3ccccc3c2)CC1 | 0.23 | Ratio IC50 [2]: 2 |
| C=CC(=O)NCCCC[C@H](NC(=O)OCc1c(F)cccc1F)C(=O)O | 10 |  |
| C=CC(=O)NCCCC[C@H](NC(=O)OCc1ccc(C)cc1)C(=O)O | 14 |  |
| C=CC(=O)NCCCC[C@H](NC(=O)OC(C)(C)C)C(=O)N1CCN(c2cccc(C)n2)CC1 | 0.85 |  |
| C=CC(=O)NCCCC[C@H](NC(=O)OCc1cccc(C(F)(F)F)c1)C(=O)O | 10 |  |
| C=CC(=O)NCCCC[C@H](NC(=O)OCc1ccccc1Cl)C(=O)O | 1.9 |  |
| C=CC(=O)NCCCC[C@H](NC(=O)OCc1ccccc1)C(=O)N1CCN(C)CC1 | 0.61 | Ratio IC50 [2]: 2 |
| C=CC(=O)NCCCC[C@H](NC(C)=O)C(=O)N1CCN(c2cccc(C)n2)CC1 | 0.19 |  |
| C=CC(=O)NCCCC[C@H](NC(=O)OCc1ccccc1)C(=O)N(CC)CC | 1.4 |  |
| C=CC(=O)NCCCC[C@H](NC(=O)OCc1ccccc1C(F)(F)F)C(=O)O | 3.5 |  |
